Reference: patent US9163003B2, “4-piperidinyl compounds for use as tankyrase inhibitors” (NOVARTIS AG, priority 2011, dated 2015)

Experiments:
Human PARP1 = Human PARP1 (Homo sapiens (Human), UniProt P09874); assay: PARP1 autoparsylation biochemical assay, LC/MS detection of nicotinamide; conditions: read-out: PARP1 IC50, 20 nM enzyme, 250 μM NAD+, 60 min room temperature
[1] = test system: Non-small lung cancer ABC-1 cells; assay: Cellular proliferation assay, ABC-1 cells (CellTiter-Glo); format: cell-based; conditions: Homo sapiens, 72 h, 3 days of compound treatment
Procedure: Non-small lung cancer ABC-1 cells were plated at 5000 cells per well in 96-well plates and treated with 8 serial compound dilutions starting from 10 μM as the highest concentration. Viable cells were measured after 3 days of compound treatment using the CellTiter-Glo assay (Promega, G7570). Assay was performed following the manufacture protocol.

[2] = target: tankyrase 2 protein PARP domain, TNKS2P (GST-tagged) (Homo sapiens (Human), UniProt Q9H2K2); assay: TNKS2 autoparsylation (AP) biochemical assay, LC/MS detection of nicotinamide; conditions: 20 nM enzyme, 250 μM NAD+, 60 min room temperature
Sequence of tankyrase 2 protein PARP domain, TNKS2P (GST-tagged) (Q9H2K2 959-1164): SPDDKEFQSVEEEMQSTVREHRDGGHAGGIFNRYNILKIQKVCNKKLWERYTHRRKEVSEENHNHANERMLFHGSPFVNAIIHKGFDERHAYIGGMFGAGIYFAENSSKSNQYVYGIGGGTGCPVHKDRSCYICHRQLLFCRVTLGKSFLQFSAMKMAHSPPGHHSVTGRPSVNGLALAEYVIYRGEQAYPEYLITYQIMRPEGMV

Axin2 protein = assay: Cellular ELISA assay for stabilizing the Axin2 protein in SW480 cells; format: cell-based; conditions: Homo sapiens, 24 hrs treatment, read-out: Axin AC50
Procedure: Compound activity in stabilizing the Axin2 protein was measured by Sandwich Enzyme-Linked Immuosorbent (ELISA) assay in the colorectal cell line SW480. 30,000 SW480 cells were seeded per well in 96-well plate and incubated overnight prior to compound treatment. Cells were then treated with compounds in 6-point dilution starting at 10 μM for 24 hrs. Cells were then washed with 100 μL of cold Phosphate Buffer Saline (PBS), and lysed in 125 μl of cold 1× lysis buffer (Cell Signaling Technology, 9803) supplemented with Protease inhibitor (Roche, 11836170) and Phosphatase inhibitors (Sigma, P2850, P5726). For the ELISA assay, anti Axin-2 capture antibody (Strategic Diagnostics) antibody was diluted to a concentration of 1 μg/ml (1:1000) in Carbonate Coating buffer, pH 9.2 (Sigma, C3041-50CAP). 100μ of the diluted anti Axin-2 capture antibody per well was then used to coat the 96-well ELISA plate (Thermo Electron Corp., MicroLite 1 flat bottom plate #7571) overnight at 4° C. Plates were then washed three times with 300 μl/well of wash solution, PBST20 (PBS+0.05% Tween), and blocked with 300 μl/well 1% BSA/PBS (BSA, Millipore Probumin #82-045-1) for 1.5 hours at room temperature while shaking gently. After blocking, plates were then washed three times with 300 μl/well of wash solution. 100 μL of prepared SW480 cell lysate was then added to each well and incubated at room temperature for 2 hours while shaking gently. After washing, 100 μL of Biotinylated anti-Axin2 antibody (CST, 2151) was added to each well and incubated room temperature for 2 hours. 100 μL of Streptavidin-HRP (R&D systems, DY998) diluted 1:200 in 1% BSA/PBS was then added in each well and incubate for 30 mins at R/T in the dark. Signal was detected by Chemiluminescence (Pierce SuperSignal ELISA Femto #3704), and measured on PerkinElmer Wallac 1420 plate reader.

[3] = target: human tankyrase 1 PARP catalytic domain, TNKS1P (GST-tagged) (Homo sapiens (Human), UniProt O95271); assay: TNKS1 autoparsylation (AP) biochemical assay, LC/MS detection of nicotinamide; conditions: 20 nM enzyme, 250 μM NAD+, 60 min room temperature
Sequence of human tankyrase 1 PARP catalytic domain, TNKS1P (GST-tagged) (O95271 1112-1317): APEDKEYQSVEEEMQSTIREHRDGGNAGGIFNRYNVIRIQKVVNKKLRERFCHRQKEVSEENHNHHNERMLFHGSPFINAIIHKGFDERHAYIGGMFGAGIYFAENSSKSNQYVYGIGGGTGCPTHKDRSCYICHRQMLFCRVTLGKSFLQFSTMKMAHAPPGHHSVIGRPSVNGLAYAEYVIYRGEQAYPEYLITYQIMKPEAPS
Procedure: The human tankyrase 1 PARP catalytic domain, TNKS1P, was cloned into a pDONR221 vector using the Invitrogen Gateway Technology. This entry clone was then subcloned into the destination vector pDEST20 to obtain the N-terminal Glutathione S-transferase (GST)-tagged fusion protein.
The autoparsylation activity of the TNKS 1/2 or PARP1/2 enzymes was measured by the liquid chromatography-mass spectrometry (LC/MS) detection of nicotinamide as readout. Compound activity in inhibiting the TNKS and PARP autoparsylation was evaluated by IC50 measurements.

PARP2 = PARP2 (Mus musculus (Mouse), UniProt O88554); assay: PARP2 autoparsylation biochemical assay, LC/MS detection of nicotinamide; conditions: read-out: PARP2 Ic50, 20 nM enzyme, 250 μM NAD+, 60 min room temperature
Sequence of PARP2 (O88554 whole entry): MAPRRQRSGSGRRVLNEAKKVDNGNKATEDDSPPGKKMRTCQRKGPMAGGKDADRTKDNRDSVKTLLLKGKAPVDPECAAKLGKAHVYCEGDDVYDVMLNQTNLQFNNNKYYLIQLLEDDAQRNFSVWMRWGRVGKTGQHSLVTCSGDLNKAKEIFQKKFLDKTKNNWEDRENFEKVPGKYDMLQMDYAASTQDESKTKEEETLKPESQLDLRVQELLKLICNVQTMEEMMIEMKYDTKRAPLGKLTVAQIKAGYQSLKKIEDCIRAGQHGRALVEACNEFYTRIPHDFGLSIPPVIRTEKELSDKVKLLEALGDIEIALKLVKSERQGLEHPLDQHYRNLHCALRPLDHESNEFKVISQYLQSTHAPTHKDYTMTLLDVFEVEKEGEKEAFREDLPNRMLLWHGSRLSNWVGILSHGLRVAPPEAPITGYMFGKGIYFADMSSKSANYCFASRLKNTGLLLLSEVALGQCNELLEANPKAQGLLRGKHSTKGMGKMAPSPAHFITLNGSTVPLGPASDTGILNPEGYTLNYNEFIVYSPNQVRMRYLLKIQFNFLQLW

[4] = test system: Wnt ligand-induced signaling; assay: Wnt-responsive Super-TOpFlash (STF) luciferase reporter gene assay in HEK293 cells; format: cell-based; conditions: Homo sapiens, Wnt3A condition medium induced
Procedure: Compound activity in inhibiting Wnt ligand-induced signaling was measured using a Wnt-responsive Super-TOpFlash (STF) luciferase reporter gene assay in HEK293 cells. On day 1 of the assay, cells were plated at a density of 8000 cells per well of 384-well plate in 25 μl medium containing 5% fetal bovine serum (FBS). On the second day, […] condition medium (CM) produced from mouse L cells was added to the cells to induce Wnt signaling, followed by addition of 5 μL of compounds each well in 10-point serial dilution. On the third day, the luciferase activity was measured by the Bright-Glo™ Luciferase Assay System following manufacture's protocol (Promega, E2620). The Inhibition was calculated as: (Maximum Wnt-induced signaling−Sample)/(Maximum Wnt-induced signaling−Background)*100. “Maximum Wnt-induced signaling” is the STF signal level induced by 20% Wnt3A CM without compound; and “Background” is the STF signal level without the addition of Wnt3A CM or compound.

Sequence of Human PARP1 (P09874 whole entry): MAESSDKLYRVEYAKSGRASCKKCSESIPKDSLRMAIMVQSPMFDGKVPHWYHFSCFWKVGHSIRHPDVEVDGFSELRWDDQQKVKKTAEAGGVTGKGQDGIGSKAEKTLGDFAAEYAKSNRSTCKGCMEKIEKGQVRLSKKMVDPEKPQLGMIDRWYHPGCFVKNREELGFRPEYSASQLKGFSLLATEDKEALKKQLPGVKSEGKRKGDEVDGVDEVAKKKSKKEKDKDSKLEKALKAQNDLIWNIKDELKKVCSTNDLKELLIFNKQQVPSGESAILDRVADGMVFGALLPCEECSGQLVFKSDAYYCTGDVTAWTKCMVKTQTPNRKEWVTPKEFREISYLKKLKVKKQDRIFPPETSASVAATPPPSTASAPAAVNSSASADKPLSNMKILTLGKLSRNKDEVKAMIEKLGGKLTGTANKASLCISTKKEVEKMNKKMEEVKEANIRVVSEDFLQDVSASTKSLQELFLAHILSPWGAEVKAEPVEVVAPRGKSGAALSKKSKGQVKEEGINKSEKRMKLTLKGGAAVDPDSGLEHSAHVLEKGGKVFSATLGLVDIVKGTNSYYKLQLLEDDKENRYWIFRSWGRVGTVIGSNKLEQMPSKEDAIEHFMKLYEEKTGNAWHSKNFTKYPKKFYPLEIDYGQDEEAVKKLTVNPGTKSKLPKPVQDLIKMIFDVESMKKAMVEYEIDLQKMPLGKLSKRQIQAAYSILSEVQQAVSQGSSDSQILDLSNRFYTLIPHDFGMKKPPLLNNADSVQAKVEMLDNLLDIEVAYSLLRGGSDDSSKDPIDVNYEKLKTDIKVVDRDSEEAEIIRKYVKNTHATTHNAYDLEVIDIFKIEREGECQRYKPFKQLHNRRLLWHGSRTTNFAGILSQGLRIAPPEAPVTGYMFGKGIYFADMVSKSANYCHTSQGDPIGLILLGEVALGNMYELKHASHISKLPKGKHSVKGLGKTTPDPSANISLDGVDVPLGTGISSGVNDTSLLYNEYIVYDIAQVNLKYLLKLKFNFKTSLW

Compound	IC50 (Human PARP1) [nM]	IC50 [1] [nM]	IC50 [2] [nM]	AC50 (Axin2 protein) [nM]	IC50 [3] [nM]	IC50 (PARP2) [nM]	IC50 [4] [nM]
O=C(c1ccc(F)cc1)C1CCN(C2CCN(Cc3nc4c(c(=O)[nH]3)COCC4)C2=O)CC1 (centres unmarked) [Example 10, 2-{3-[4-(4-Fluoro-benzoyl)-piperidin-1-yl]-2-oxo-pyrrolidin-1-ylmethyl}-3,5,7,8-tetrahydro-pyrano[4,3-d]pyrimidin-4-one]	23600 ± 2700	291	6 ± 1	257 ± 67	27 ± 1	9200 ± 2200	10 ± 1
O=C(c1ccc(F)cc1)C1CCN([C@@H]2CCN(Cc3nc4c(c(=O)[nH]3)COCC4)C2=O)CC1 [Example 12, 2-{(R)-3-[4-(4-Fluoro-benzoyl)-piperidin-1-yl]-2-oxo-pyrrolidin-1-ylmethyl}-3,5,7,8-tetrahydro-pyrano[4,3-d]pyrimidin-4-one]		> 10000	2120 ± 50	> 10000	5340 ± 340		620 ± 90
COc1ccc(C(=O)C2CCN([C@@H]3CCN(Cc4nc5c(c(=O)[nH]4)COCC5)C3=O)CC2)cc1C [Example 14, 2-{(R)-3-[4-(4-Methoxy-3-methyl-benzoyl)-piperidin-1-yl]-2-oxo-pyrrolidin-1-ylmethyl}-3,5,7,8-tetrahydro-pyrano[4,3-d]pyrimidin-4-one]		149	206 ± 20	128 ± 130	711 ± 20		31 ± 3
COc1ccc(C(=O)C2CCN(C3CCCN(Cc4nc5c(c(=O)[nH]4)COCC5)C3=O)CC2)cc1 (centres unmarked) [Example 18, 2-[4-(4-Methoxy-benzoyl)-2′-oxo-[1,3′]bipiperidinyl-1′-ylmethyl]-3,5,7,8-tetrahydro-pyrano[4,3-d]pyrimidin-4-one]		99	15 ± 1	51 ± 7	46 ± 1		5.6 ± 0.7
COc1ccc(C(=O)C2CCN(C3CCN(Cc4nc(C)cc(=O)[nH]4)C3=O)CC2)cc1 (centres unmarked) [Example 23, 2-{3-[4-(4-Methoxy-benzoyl)-piperidin-1-yl]-2-oxo-pyrrolidin-1-ylmethyl}-6-methyl-3H-pyrimidin-4-one]		489	137 ± 22	227 ± 25	286 ± 5		56 ± 33
COc1ccc(C(=O)C2CCN([C@@H]3CCN(Cc4nc5ccccc(=O)c5[nH]4)C3=O)CC2)cc1C [Example 29, 2-{(R)-3-[4-(4-Methoxy-3-methyl-benzoyl)-piperidin-1-yl]-2-oxo-pyrrolidin-1-ylmethyl}-3H-cycloheptaimidazol-4-one]		10	112	9 ± 1	278 ± 50		14 ± 4
COc1ccc(C(=O)C2CCN([C@@H]3CCN(Cc4nc5ccccc(=O)c5[nH]4)C3=O)CC2)cc1 [Example 31, 2-{(R)-3-[4-(4-Methoxy-benzoyl)-piperidin-1-yl]-2-oxo-pyrrolidin-1-ylmethyl}-3H-cycloheptaimidazol-4-one]		85		89 ± 2	1080 ± 10	10100 ± 2600	65 ± 14
COc1ccc(C(=O)C2CCN(C3CCN(CC(=O)Nc4nnc5n4CCS5)C3=O)CC2)cc1 (centres unmarked) [Example 32, N-(5,6-dihydrothiazolo[2,3-c][1,2,4]triazol-3-yl)-2-(3-(4-(4-methoxybenzoyl)piperidin-1-yl)-2-oxopyrrolidin-1-yl)acetamide]	> 19000	76		131 ± 8	43 ± 1	5090 ± 120	
COc1ccc(C(=O)C2CCN(C3CCN(CC(=O)Nc4nnc5ccccn45)C3=O)CC2)cc1 (centres unmarked) [Example 35, N-([1,2,4]triazolo[4,3-a]pyridin-3-yl)-2-(3-(4-(4-methoxybenzoyl)piperidin-1-yl)-2-oxopyrrolidin-1-yl)acetamide]		2630	636 ± 36	1890 ± 160	2470 ± 30		940 ± 70
